Measured values published in PubChem BioAssay (NCI).
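The compound was tested at five concentrations on cells cultured in 96-well plates, with a 48-hour exposure period. TGI denotes the concentration required for complete inhibition of growth.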

Tested on: NCI-H23 lung
Assay: inhibition of tumour cell growth, NCI panel, 48 h

SMILES	TGI [µM]
COc1cccc(-c2nc(-c3cnccn3)n(C3OC(CO)C(O)C3O)n2)c1 (configuration not stated)	> 100
CC1(C)COC(c2ccccc2-c2ccccc2)=N1	> 100

Tested on: HOP-62 NSCLC
Assay: inhibition of tumour cell growth, NCI panel, 48 h

SMILES	TGI [µM]
Nc1cnc(Nc2cccc3ccccc23)o1	> 10
C[Si](C)(C)CNC(=O)OCc1ccccc1	> 100
COc1cccc(-c2nc(-c3cnccn3)n(C3OC(CO)C(O)C3O)n2)c1 (configuration not stated)	> 100
CC1(C)COC(c2ccccc2-c2ccccc2)=N1	> 100

Tested on: EKVX NSCLC
Assay: inhibition of tumour cell growth, NCI panel, 48 h

SMILES	TGI [µM]
Nc1cnc(Nc2cccc3ccccc23)o1	> 10
COC(=O)C1=CC(=O)OC1(OO)c1ccc(Br)cc1 (configuration not stated)	> 100
C[Si](C)(C)CNC(=O)OCc1ccccc1	> 100
COc1cccc(-c2nc(-c3cnccn3)n(C3OC(CO)C(O)C3O)n2)c1 (configuration not stated)	> 100
CC1(C)COC(c2ccccc2-c2ccccc2)=N1	> 100

Tested on: OVCAR-8 ovarian
Assay: inhibition of tumour cell growth, NCI panel, 48 h

SMILES	TGI [µM]
Nc1cnc(Nc2cccc3ccccc23)o1	> 10
COC(=O)C1=CC(=O)OC1(OO)c1ccc(Br)cc1 (configuration not stated)	> 100
C[Si](C)(C)CNC(=O)OCc1ccccc1	> 100
COc1cccc(-c2nc(-c3cnccn3)n(C3OC(CO)C(O)C3O)n2)c1 (configuration not stated)	> 100
CC1(C)COC(c2ccccc2-c2ccccc2)=N1	> 100

Tested on: KM12 colon
Assay: inhibition of tumour cell growth, NCI panel, 48 h

SMILES	TGI [µM]
Nc1cnc(Nc2cccc3ccccc23)o1	> 10
COC(=O)C1=CC(=O)OC1(OO)c1ccc(Br)cc1 (configuration not stated)	> 100
C[Si](C)(C)CNC(=O)OCc1ccccc1	> 100
COc1cccc(-c2nc(-c3cnccn3)n(C3OC(CO)C(O)C3O)n2)c1 (configuration not stated)	> 100
CC1(C)COC(c2ccccc2-c2ccccc2)=N1	> 100

Tested on: SK-MEL-2 melanoma
Assay: inhibition of tumour cell growth, NCI panel, 48 h

SMILES	TGI [µM]
Nc1cnc(Nc2cccc3ccccc23)o1	> 10
COC(=O)C1=CC(=O)OC1(OO)c1ccc(Br)cc1 (configuration not stated)	> 100
C[Si](C)(C)CNC(=O)OCc1ccccc1	> 100
CC1(C)COC(c2ccccc2-c2ccccc2)=N1	> 100

Tested on: SW-620 colon
Assay: inhibition of tumour cell growth, NCI panel, 48 h

SMILES	TGI [µM]
Nc1cnc(Nc2cccc3ccccc23)o1	> 10
COC(=O)C1=CC(=O)OC1(OO)c1ccc(Br)cc1 (configuration not stated)	> 100
C[Si](C)(C)CNC(=O)OCc1ccccc1	> 100
COc1cccc(-c2nc(-c3cnccn3)n(C3OC(CO)C(O)C3O)n2)c1 (configuration not stated)	> 100
CC1(C)COC(c2ccccc2-c2ccccc2)=N1	> 100

Tested on: OVCAR-5 ovarian
Assay: inhibition of tumour cell growth, NCI panel, 48 h

SMILES	TGI [µM]
COC(=O)C1=CC(=O)OC1(OO)c1ccc(Br)cc1 (configuration not stated)	> 100
C[Si](C)(C)CNC(=O)OCc1ccccc1	> 100
COc1cccc(-c2nc(-c3cnccn3)n(C3OC(CO)C(O)C3O)n2)c1 (configuration not stated)	> 100
CC1(C)COC(c2ccccc2-c2ccccc2)=N1	> 100

Tested on: MOLT-4 leukemia
Assay: inhibition of tumour cell growth, NCI panel, 48 h

SMILES	TGI [µM]
COC(=O)C1=CC(=O)OC1(OO)c1ccc(Br)cc1 (configuration not stated)	> 100
COc1cccc(-c2nc(-c3cnccn3)n(C3OC(CO)C(O)C3O)n2)c1 (configuration not stated)	> 100
CC1(C)COC(c2ccccc2-c2ccccc2)=N1	> 100

Tested on: U251 CNS
Assay: inhibition of tumour cell growth, NCI panel, 48 h

SMILES	TGI [µM]
Nc1cnc(Nc2cccc3ccccc23)o1	> 10
COC(=O)C1=CC(=O)OC1(OO)c1ccc(Br)cc1 (configuration not stated)	> 100
C[Si](C)(C)CNC(=O)OCc1ccccc1	> 100
COc1cccc(-c2nc(-c3cnccn3)n(C3OC(CO)C(O)C3O)n2)c1 (configuration not stated)	> 100
CC1(C)COC(c2ccccc2-c2ccccc2)=N1	> 100

Tested on: SK-MEL-28 melanoma
Assay: inhibition of tumour cell growth, NCI panel, 48 h

SMILES	TGI [µM]
Nc1cnc(Nc2cccc3ccccc23)o1	> 10
COC(=O)C1=CC(=O)OC1(OO)c1ccc(Br)cc1 (configuration not stated)	> 100
C[Si](C)(C)CNC(=O)OCc1ccccc1	> 100
COc1cccc(-c2nc(-c3cnccn3)n(C3OC(CO)C(O)C3O)n2)c1 (configuration not stated)	> 100
CC1(C)COC(c2ccccc2-c2ccccc2)=N1	> 100

Tested on: HT29 colon
Assay: inhibition of tumour cell growth, NCI panel, 48 h

SMILES	TGI [µM]
Nc1cnc(Nc2cccc3ccccc23)o1	> 10
COC(=O)C1=CC(=O)OC1(OO)c1ccc(Br)cc1 (configuration not stated)	> 100
C[Si](C)(C)CNC(=O)OCc1ccccc1	> 100
COc1cccc(-c2nc(-c3cnccn3)n(C3OC(CO)C(O)C3O)n2)c1 (configuration not stated)	> 100
CC1(C)COC(c2ccccc2-c2ccccc2)=N1	> 100

Tested on: HCT-15 colon
Assay: inhibition of tumour cell growth, NCI panel, 48 h

SMILES	TGI [µM]
Nc1cnc(Nc2cccc3ccccc23)o1	> 10
COC(=O)C1=CC(=O)OC1(OO)c1ccc(Br)cc1 (configuration not stated)	> 100
C[Si](C)(C)CNC(=O)OCc1ccccc1	> 100
COc1cccc(-c2nc(-c3cnccn3)n(C3OC(CO)C(O)C3O)n2)c1 (configuration not stated)	> 100
CC1(C)COC(c2ccccc2-c2ccccc2)=N1	> 100

Tested on: K-562 leukemia
Assay: inhibition of tumour cell growth, NCI panel, 48 h

SMILES	TGI [µM]
Nc1cnc(Nc2cccc3ccccc23)o1	> 10
COC(=O)C1=CC(=O)OC1(OO)c1ccc(Br)cc1 (configuration not stated)	> 100
C[Si](C)(C)CNC(=O)OCc1ccccc1	> 100
COc1cccc(-c2nc(-c3cnccn3)n(C3OC(CO)C(O)C3O)n2)c1 (configuration not stated)	> 100
CC1(C)COC(c2ccccc2-c2ccccc2)=N1	> 100

Tested on: PC-3 prostate
Assay: inhibition of tumour cell growth, NCI panel, 48 h

SMILES	TGI [µM]
Nc1cnc(Nc2cccc3ccccc23)o1	> 10
COC(=O)C1=CC(=O)OC1(OO)c1ccc(Br)cc1 (configuration not stated)	> 100
C[Si](C)(C)CNC(=O)OCc1ccccc1	> 100
COc1cccc(-c2nc(-c3cnccn3)n(C3OC(CO)C(O)C3O)n2)c1 (configuration not stated)	> 100
CC1(C)COC(c2ccccc2-c2ccccc2)=N1	> 100
